According to US9896482B2, “Beta hairpin peptides having antiviral properties against Dengue virus” (CENTRO DE INGENIERÍA GENÉTICA Y BIOTECNOLOGÍA, priority 2014, dated 2018):
Read-outs that look alike come from different tables or passages of the source. Where a SMILES comes first, the peptide text is derived from it. Bridges are numbered along the chain shown (N, C = ends). [ ]: non-standard residue; d: D form.

Tests used:
[1] = system: DENV serotype 2 (NIBSC code S16803); experiment: Plaque reduction assay in Vero cells, DENV2; format: cell-based, Dengue virus
Experimental: (§1) The cells were grown in 24 well plates until the monolayer reached approximately 90% confluence, after which they were washed twice with MEM medium without Fetal Bovine Serum (FBS). Then, peptide dilutions were added and the cell-peptide mixtures were incubated typically for 1 hour at 37° C., followed by the addition of a DENV serotype 2 preparation (NIBSC code S16803) at a multiplicity of infection (m.o.i.) of 0.001. The cells were then incubated for 1 hour at 37° C., and once the period of incubation with the viral inoculum concluded, were washed again to remove unbound virions and incubated for 5 days at 37° C. in high density medium (MEM supplemented with non-essential amino acids, 1% FBS, 1% carboxymethylcellulose) in order to let viral plaques form. Afterwards, the cells were stained with 0.1% Naphtol Blue Black in 0.15 M sodium acetate. Two replicates per experimental point were used in each assay, and three independent determinations were performed for each sample.
Next, it was decided to compare the antiviral activity of peptides PHB4 and HDIII3CL against all four DENV serotypes, with the objective of comparing their respective IC50 values. This comparison was performed with plaque reduction assays on Vero cells, adding the viral inoculum for each serotype (DENV1, NIBSC code West Pac 74, DENV2, NIBSC, code S16803; DENV3, NIBSC, code CH53489; DENV 4, NIBSC code TVP360) at a m.o.i. of 0.001.

[2] = system: Vero cells; experiment: Toxicity in Vero cells (MTT assay and manual cell counting); format: cell-based; settings: ‡ non toxic at 1000 μM
Experimental: (§2) The toxicity of the beta hairpin peptides was assessed with the MTT (3-(4,5-dimethylthiazol-2-yl)-2,5-diphenyltetrazolium bromide, Invitrogen, USA) assay (Mosmann, T. (1983). J. Immunol. Methods 65, 55-63.), and by manual cell counting using a Neubauer chamber. Ninety-six well plates (Costar, USA) were seeded with 200 μL/well of a suspension containing Vero cells at 1×10^5 cells/mL and incubated until the monolayers reached approximately 90% confluence, typically for 18-24 h. After washing the cells twice with DMEM (Dulbecco's Modified Eagle Medium) medium, 50 μL/well were added of the peptide or additive dilutions to be evaluated (Triton ^X-100™ dissolved in PBS was used as positive toxicity control) and the plates were incubated at 37° C. under a 5% CO2 atmosphere for 2 or 24 h. Two different procedures were then employed to measure toxicity: • a) A 2 mg/mL solution of MTT in PBS was added (50 μL/well) and the plates were incubated for further 4 h at 37° C., 5% CO2. The medium was then removed, and 100 μL/well of DMSO were then added to solubilize formazan precipitates. Finally, the optical density (OD) of the supernatants at a wavelength of 540 nm was measured using a plate reader (Sensident Scan™, Merck, Germany). • b) The plates were washed with 200 μL/well of DMEM medium and then a trypsin solution (Sigma, USA) was added at 50 μL/well. After inactivating the trypsin by adding 150 μL/well of DMEM supplemented with 10% FBS, the cells were counted using the Trypan Blue (Gibco, USA) vital stain. The data were processed using the statistical software package Prism v5.3 (GraphPad, USA), using non-linear regression to fit them to a log10 (concentration) vs response curve.

[3] = molecular target: T1, sLRP1-CIV (Homo sapiens, UniProt Q07954); settings: other studies; read-out: Affinity of multi-point interaction with clusters II and IV of LRP1; cited from earlier work
T1 construct: purchased R&D Systems, USA

[4] = molecular target: T1, sLRP1-CIV; experiment: Biacore (SPR) binding to immobilized sLRP1-CIV; settings: double site model, maximum RU vs. concentration
Experimental: The interaction of the beta hairpin peptides with soluble fragments of the LRP1 receptor was studied by Surface Plasmon Resonance (SPR), using a Biacore X unit. In this technique, one of the interaction partners to be studied is immobilized on the surface of a chip, and the other interaction partner is dissolved in a solution that runs through the measurement cell on top of the interaction surface, under conditions of controlled flow. The association and dissociation of interacting partners is measured in resonance units (RU) and plotted, as a function of time, on charts known as ‘sensorgrams’. SPR, therefore, enables the experimenter to obtain detailed information about the interaction without having to label either interaction partner.
In this example, one channel of a CM5 chip (GE Healthcare, USA) was used to immobilize protein sLRP1-CIV on its surface at high density (see Table 6) and recombinant Human Serum Albumin (rHSA, Sigma-Aldrich, USA) was immobilized on the other channel.
Although it was decided to immobilize sLRP1-CIV at high density because these conditions make easier the detection of any potential interactions with compounds whose molecular weight is lower than that of average proteins (such as the peptides this experiment is intended to study), it must be stressed that in high-density surfaces, mass transfer limitations and the possibility of multivalent binding make difficult the accurate determination of kinetic constants. Therefore, and in order to characterize in greater detail the sLRP1-CIV binding surface, different RAP dilutions (0.6-20 μM) were loaded, and RU were registered under conditions of interaction equilibria (250 sec, see FIG. 13B). […] The data also indicate that immobilized sLRP1-CIV faithfully reproduces the previously reported characteristics of the LRP1-RAP interaction.
The binding of beta hairpin peptides to sLRP1-CIV was studied by loading 20 μM dilutions in running buffer of the different peptide variants onto the sLRP1-CIV chip characterized above. The high strength of the resulting signals is consistent with the binding of aggregated, rather than monomeric forms of the peptides. Therefore, the observed variations between different peptides may reflect either differences in the affinity of unitary peptide interactions or differences in aggregation numbers and/or geometries that lead to variations in the number of peptide units able to simultaneously engage immobilized sLRP1-CIV molecules in a multivalent manner. […] The difference between peptides HDIII3CL2 and HDIII3CL is that the former has an additional C-terminal lysine and has, therefore, a stronger cationic character, which may facilitate additional electrostatic interactions with the negatively charged LRP1 receptor.

[5] = system: DENV1 (NIBSC code West Pac 74); experiment: Plaque reduction assay in Vero cells, DENV1; format: cell-based, Dengue virus; settings: m.o.i. 0.001, read-out: Antiviral activity IC50 vs DENV1
Experimental: as §1
(§3) Next, it was decided to compare the antiviral activity of peptides PHB4 and HDIII3CL against all four DENV serotypes, with the objective of comparing their respective IC50 values. […]

[6] = system: DENV 4 (NIBSC code TVP360); experiment: Plaque reduction assay in Vero cells, DENV4; format: cell-based, Dengue virus; settings: m.o.i. 0.001, read-out: Antiviral activity IC50 vs DENV4
Experimental: as §1, §3

[7] = system: DENV3 (NIBSC code CH53489); experiment: Plaque reduction assay in Vero cells, DENV3; format: cell-based, Dengue virus; settings: m.o.i. 0.001, read-out: Antiviral activity IC50 vs DENV3
Experimental: as §1, §3

[8] = Toxicity in Vero cells (MTT assay and manual cell counting); format: cell-based; settings: ‡ non toxic at 1000 μM, read-out: Ctox50
Experimental: as §2

[9] = DENV2, plaque reduction, NA = no detectable activity at concentrations lower than or equal to 100 μM, read-out: IC50, antiviral activity in Vero cells (50% inhibitory activity)

Row | Molecule | IC50 [1, 9] [µM] | Ctox50 [2] | Kd [3] [µM] | Kd ([4]; read-out: Kd of high-affinity interaction) [µM] | Kd ([4]; read-out: Kd of low-affinity interaction) [µM] | IC50 [5] [µM] | IC50 [6] [µM] | IC50 [7] [µM] | IC50 ([1]; Vero cells, m.o.i. 0.001, read-out: Antiviral activity IC50 vs DENV2) [µM] | CC50 [8] [µM]
1 | CC(C)[C@@H]1NC(=O)[C@H](CCCCN)NC(=O)[C@H](CCCCN)NC(=O)[C@H](CC(=O)O)NC(=O)[C@H]2CCCN2C(=O)[C@H](CCC(=O)O)NC(=O)[C@H]([C@@H](C)O)NC(=O)[C@H](Cc2c[nH]c3ccccc23)NC(=O)[C@H](CC(N)=O)NC(=O)[C@H](C(C)C)NC(=O)[C@@H](N)CSSC[C@@H](C(=O)N[C@@H](CCCCN)C(=O)N[C@@H](CCCCN)C(=O)N[C@@H](CCCCN)C(N)=O)NC(=O)[C@H](Cc2c[nH]c3ccccc23)NC(=O)[C@H](CC(N)=O)NC1=O [PHB1] (H-CVNWTE[dP]DKKVNWCKKK-NH2; disulfide 1-14) | 75 | >>1000^‡ μM | – | – | – | – | – | – | – | –
2 | RAP: Receptor-Associated Protein, a known LRP1 ligand | – | – | 0.006 to 0.018 | 0.0042 | 1.1 | – | – | – | – | –
3 | CC[C@H](C)[C@@H]1NC(=O)CNC(=O)[C@H]([C@@H](C)CC)NC(=O)[C@H](C(C)C)NC(=O)[C@H]([C@@H](C)CC)NC(=O)[C@H](CC(N)=O)NC(=O)[C@H](CO)NC(=O)[C@@H](N)CSSC[C@@H](C(=O)N[C@@H](CCCCN)C(=O)N[C@@H](CCCCN)C(N)=O)NC(=O)[C@H](Cc2c[nH]c3ccccc23)NC(=O)[C@H](CC(N)=O)NC(=O)[C@H]([C@@H](C)CC)NC(=O)[C@H](CCCCN)NC(=O)[C@H](CC(C)C)NC(=O)[C@H](C)NC(=O)[C@H](CCCCN)NC(=O)[C@H](CC(=O)O)NC(=O)CNC1=O [HDIII3CL, reference compound] (H-CSNIVIGIGDKALKINWCKK-NH2; disulfide 1-18) | 20 | – | – | – | – | 15 | 50 | 20 | 20 | 1000
